What was measured:
Colo205 cell line = test: Colo205 cell proliferation assay (MTT assay, WST-8 readout); assay type: cell-based; details: Homo sapiens; IC50 values of growth inhibition in Colo 205 cells; 72 hours
In short: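 Growth-inhibition IC50 was derived from WST-8 absorbance at 450 nm (2 h development) after 72 h compound exposure at 37° C. Exposure used final 50 μM–0.005 μM compound in 0.5% DMSO. Colo205 cells had been plated at 5,000/well in RPMI-1640 plus 10% FBS and allowed 24 h to attach.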

human ERK2 = biological target: T1, human ERK2 (Homo sapiens, UniProt P28482); test: LanthaScreen TR-FRET enzymatic assay, ERK2; details: IC50 values of ERK2 biochemical activity; 5 μM ATP, 400 nM ATF2-GFP substrate
T1 construct: recombinantly expressed as GST-tagged full-length protein purified from E. coli; GST; purchased Invitrogen PV3311; host or cells: E. coli
In short: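 IC50 values were fitted from percent of DMSO control using a 520/495 nm TR-FRET ratio with terbium anti-pATF2 (pThr71), read after an EDTA stop. The kinase reaction lasted one hour at room temperature, following 15-min compound pre-treatment. It contained 5 μM ATP, 400 nM ATF2-GFP substrate and 20 ng/ml in vitro-activated GST-ERK2.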

T1 sequence (P28482 whole entry): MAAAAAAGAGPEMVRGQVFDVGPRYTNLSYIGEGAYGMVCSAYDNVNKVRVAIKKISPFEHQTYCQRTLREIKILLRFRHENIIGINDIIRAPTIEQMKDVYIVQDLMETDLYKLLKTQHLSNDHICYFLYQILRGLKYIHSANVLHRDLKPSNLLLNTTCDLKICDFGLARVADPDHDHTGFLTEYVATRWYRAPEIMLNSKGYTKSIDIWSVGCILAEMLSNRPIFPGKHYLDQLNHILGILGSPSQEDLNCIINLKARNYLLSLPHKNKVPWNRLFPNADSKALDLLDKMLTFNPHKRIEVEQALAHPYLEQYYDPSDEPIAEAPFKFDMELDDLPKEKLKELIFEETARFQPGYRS

Compound	IC50 (Colo205 cell line) [nM]	IC50 (human ERK2) [nM]
Cc1cc(-c2n[nH]c3ccc(-c4ccn(Cc5cccc(C#N)c5)c(=O)c4)cc23)ccn1 [Example 71, 3-((4-(3-(2-methylpyridin-4-yl)-1H-indazol-5-yl)-2-oxopyridin-1(2H)-yl)methyl)benzonitrile]	1000 to 5000	< 10
Cc1cc(-c2n[nH]c3ccc(-c4ccn(Cc5cc(F)ccc5F)c(=O)c4)cc23)ccn1 [Example 72, 1-(2,5-difluorobenzyl)-4-(3-(2-methylpyridin-4-yl)-1H-indazol-5-yl)pyridin-2(1H)-one]	500 to 1000	< 10
Cc1cc(-c2n[nH]c3ccc(-c4ccn(Cc5cc(F)cc(C(F)(F)F)c5)c(=O)c4)cc23)ccn1 [Example 73, 1-(3-fluoro-5-(trifluoromethyl)benzyl)-4-(3-(2-methylpyridin-4-yl)-1H-indazol-5-yl)pyridin-2(1H)-one]	500 to 1000	< 10
Cc1cc(-c2n[nH]c3ccc(-c4ccn(C(C)c5cc(F)cc(Br)c5)c(=O)c4)cc23)ccn1 (stereo not drawn) [Example 74, 1-(1-(3-bromo-5-fluorophenyl)ethyl)-4-(3-(2-methylpyridin-4-yl)-1H-indazol-5-yl)pyridin-2(1H)-one]	500 to 1000	< 10
Cc1cc(-c2n[nH]c3ccc(-c4ccn(Cc5cccc(Br)c5F)c(=O)c4)cc23)ccn1 [Example 75, 1-(3-bromo-2-fluorobenzyl)-4-(3-(2-methylpyridin-4-yl)-1H-indazol-5-yl)pyridin-2(1H)-one]	500 to 1000	< 10
Cc1cc(-c2n[nH]c3ccc(-c4ccn(Cc5cc(F)c(F)c(F)c5)c(=O)c4)cc23)ccn1 [Example 76, 4-(3-(2-methylpyridin-4-yl)-1H-indazol-5-yl)-1-(3,4,5-trifluorobenzyl)pyridin-2(1H)-one]	500 to 1000	< 10
Cc1cc(-c2n[nH]c3ccc(-c4ccn(Cc5ccc(F)c(C(F)(F)F)c5)c(=O)c4)cc23)ccn1 [Example 77, 1-(4-fluoro-3-(trifluoromethyl)benzyl)-4-(3-(2-methylpyridin-4-yl)-1H-indazol-5-yl)pyridin-2(1H)-one]	≤ 500	< 10
Cc1cc(-c2n[nH]c3ccc(-c4ccn(Cc5ccc(F)c(OC(F)(F)F)c5)c(=O)c4)cc23)ccn1 [Example 78, 1-(4-fluoro-3-(trifluoromethoxy)benzyl)-4-(3-(2-methylpyridin-4-yl)-1H-indazol-5-yl)pyridin-2(1H)-one]	1000 to 5000	10 to 50
Cc1cc(-c2n[nH]c3ccc(-c4ccn(Cc5cc(F)cc(F)c5)c(=O)c4)cc23)ccn1 [Example 79, 1-(3,5-difluorobenzyl)-4-(3-(2-methylpyridin-4-yl)-1H-indazol-5-yl)pyridin-2(1H)-one]	500 to 1000	< 10
Cc1cc(-c2n[nH]c3ccc(-c4ccn(Cc5cccc(C(F)(F)F)c5F)c(=O)c4)cc23)ccn1 [Example 80, 1-(2-fluoro-3-(trifluoromethyl)benzyl)-4-(3-(2-methylpyridin-4-yl)-1H-indazol-5-yl)pyridin-2(1H)-one]	1000 to 5000	< 10
Cc1cc(-c2n[nH]c3ccc(-c4ccn(Cc5cccc(F)c5F)c(=O)c4)cc23)ccn1 [Example 81, 1-(2,3-difluorobenzyl)-4-(3-(2-methylpyridin-4-yl)-1H-indazol-5-yl)pyridin-2(1H)-one]	≤ 500	< 10
Cc1cc(-c2n[nH]c3ccc(-c4ccn(Cc5cccc(F)c5N)c(=O)c4)cc23)ccn1 [Example 82, 1-(2-amino-3-fluorobenzyl)-4-(3-(2-methylpyridin-4-yl)-1H-indazol-5-yl)pyridin-2(1H)-one]	500 to 1000	< 10
Cc1cc(-c2n[nH]c3ccc(-c4ccn(Cc5cccc(F)c5NS(C)(=O)=O)c(=O)c4)cc23)ccn1 [Example 83, N-(2-fluoro-6-((4-(3-(2-methylpyridin-4-yl)-1H-indazol-5-yl)-2-oxopyridin-1(2H)-yl)methyl)phenyl)methanesulfonamide]	1000 to 5000	< 10
Cn1cc(-c2n[nH]c3ccc(-c4ccn(Cc5ccc(F)c(Cl)c5)c(=O)c4)cc23)cn1 [Example 84, 1-(3-chloro-4-fluorobenzyl)-4-(3-(1-methyl-1H-pyrazol-4-yl)-1H-indazol-5-yl)pyridin-2(1H)-one]	≤ 500	< 10
Cn1cc(-c2n[nH]c3ccc(-c4ccn(Cc5cc(Br)ccc5F)c(=O)c4)cc23)cn1 [Example 85, 1-(5-bromo-2-fluorobenzyl)-4-(3-(1-methyl-1H-pyrazol-4-yl)-1H-indazol-5-yl)pyridin-2(1H)-one]	≤ 500	< 10
Cn1cc(-c2n[nH]c3ccc(-c4ccn(Cc5cc(F)cc(Br)c5)c(=O)c4)cc23)cn1 [Example 86, 1-(3-bromo-5-fluorobenzyl)-4-(3-(1-methyl-1H-pyrazol-4-yl)-1H-indazol-5-yl)pyridin-2(1H)-one]	≤ 500	< 10
Cc1cc(-c2n[nH]c3ccc(-c4ccn(Cc5cccc(F)c5NC(N)=O)c(=O)c4)cc23)ccn1 [Example 87, 1-(2-fluoro-6-((4-(3-(2-methylpyridin-4-yl)-1H-indazol-5-yl)-2-oxopyridin-1(2H)-yl)methyl)phenyl)urea]	> 5000	< 10
CC(=O)Nc1c(F)cccc1Cn1ccc(-c2ccc3[nH]nc(-c4ccnc(C)c4)c3c2)cc1=O [Example 88, N-(2-fluoro-6-((4-(3-(2-methylpyridin-4-yl)-1H-indazol-5-yl)-2-oxopyridin-1(2H)-yl)methyl)phenyl)acetamide]	1000 to 5000	< 10
Cc1cc(-c2n[nH]c3ccc(-c4ccn(Cc5ccnc(C(F)(F)F)c5)c(=O)c4)cc23)ccn1 [Example 89, 4-(3-(2-methylpyridin-4-yl)-1H-indazol-5-yl)-1-((2-(trifluoromethyl)pyridin-4-yl)methyl)pyridin-2(1H)-one]	≤ 500	< 10
Cn1cc(-c2n[nH]c3ccc(-c4ccn(Cc5cccc(Br)c5)c(=O)c4)cc23)cn1 [Example 90, 1-(3-bromobenzyl)-4-(3-(1-methyl-1H-pyrazol-4-yl)-1H-indazol-5-yl)pyridin-2(1H)-one]	≤ 500	< 10
Cn1cc(-c2n[nH]c3ccc(-c4ccn(Cc5cccc(C(F)(F)F)c5)c(=O)c4)cc23)cn1 [Example 91, 4-(3-(1-methyl-1H-pyrazol-4-yl)-1H-indazol-5-yl)-1-(3-(trifluoromethyl)benzyl)pyridin-2(1H)-one]	500 to 1000	< 10
Cn1cc(-c2n[nH]c3ccc(-c4ccn(Cc5cc(F)cc(C(F)(F)F)c5)c(=O)c4)cc23)cn1 [Example 92, 1-(3-fluoro-5-(trifluoromethyl)benzyl)-4-(3-(1-methyl-1H-pyrazol-4-yl)-1H-indazol-5-yl)pyridin-2(1H)-one]	≤ 500	< 10
Cn1cc(-c2n[nH]c3ccc(-c4ccn(Cc5cccc(I)c5)c(=O)c4)cc23)cn1 [Example 93, 1-(3-iodobenzyl)-4-(3-(1-methyl-1H-pyrazol-4-yl)-1H-indazol-5-yl)pyridin-2(1H)-one]	≤ 500	< 10
Cc1cc(-c2n[nH]c3ccc(-c4ccn(Cc5ccc6cn[nH]c6c5)c(=O)c4)cc23)ccn1 [Example 94, 1-((1H-indazol-6-yl)methyl)-4-(3-(2-methylpyridin-4-yl)-1H-indazol-5-yl)pyridin-2(1H)-one]	1000 to 5000	< 10

From patent US11242334B2, “Heterocyclic compounds as kinase inhibitors, compositions comprising the heterocyclic compound, and methods of use thereof” (JS INNOPHARM (SHANGHAI) LTD, priority 2017, dated 2022)
